# pIC50: −log10 of the molar value. Where a name gives a salt, the structure may show the parent alone.
# Tested on: HCT 116 cells
# Assay: Viability assay in HCT 116 cells (CellTiter-Glo Luminescent Cell Viability Assay)
# Assay type: cell-based
# Settings: HCT 116 human colon carcinoma cells, 5 days (120 h) incubation, 10 concentrations 30 μM to 0.0015 μM, ATP luminescence
# Procedure: Viability Assay in HCT 116 Cells
# A viability assay was performed using the CellTiter-Glo® Luminescent Cell Viability Assay (see Promega Corporation's Technical Bulletin No. 288, pp. 1-11 [revised February 2004] which is hereby incorporated by reference in its entirety). This assay is a homogeneous method of determining the number of viable cells in culture based on quantitation of the ATP present, an indicator of metabolically active cells. The assay is designed for use with multiwell formats, making it ideal for automated high-throughput screening (HTS), cell proliferation and cytotoxicity assays. The homogeneous assay procedure involves adding a single reagent (containing luciferase, luciferan substrate, and buffer) directly to cells cultured in serum-supplemented medium. Cell washing, removal of medium and multiple pipetting steps are not required. The system detects as few as 15 cells/well in a 384-well format in 10 minutes after adding reagent and mixing.
# The homogeneous “add-mix-measure” format results in cell lysis and generation of a luminescent signal proportional to the amount of ATP present. The amount of ATP is directly proportional to the number of cells present in culture. The above-referenced assay generates a “glow-type” luminescent signal, produced by the luciferase reaction, which has a half-life generally greater than five hours, depending on cell type and medium used. The extended half-life eliminates the need to use reagent injectors and provides flexibility for continuous or batch mode processing of multiple plates. The unique homogeneous format avoids errors that may be introduced by other ATP measurement methods that require multiple steps.
# HCT 116 cells (human colon carcinoma, ATCC-No. CCl-247) were cultivated in RPMI 1640 medium with GlutaMAX™ I (cell culture media that contains L-Alanyl-L-Glutamine [a stabilized form/source of L-Glutamine] from Invitrogen, Cat-No. 61870-010), 5% Fetal Calf Serum (FCS, Sigma Cat-No. F4135 (FBS)); 100 Units/ml penicillin/100 μg/ml streptomycin (=Pen/Strep from Invitrogen Cat. No. 15140). For the assay the cells were seeded in 384 well plates, 1000 cells per well, in the same medium. The next day the test compounds were added in various concentrations ranging from 30 μM to 0.0015 μM (10 concentrations, 1:3 diluted). After 5 days the viability assay was performed according to the instructions of the manufacturer. In brief: the cell-plate was equilibrated to room temperature for approximately 30 minutes and then the reagent (containing luciferase, luciferan substrate, and buffer) was added. The contents were carefully mixed for 15 minutes to induce cell lysis. After 45 minutes the luminescent signal was measured in Victor 2, (scanning multiwell spectrophotometer, Wallac).
# 1st. Day: • Medium: RPMI 1640 with GlutaMAX™ I (Invitrogen, Cat-No. 61870), 5% FCS (Sigma Cat.-No. F4135), Pen/Strep (Invitrogen, Cat No. 15140). • HCT116 (ATCC-No. CCl-247): 1000 cells in 60 μl per well of 384 well plate (Greiner 781098, μClear-plate white) • After seeding incubate plates 24 h at 37° C., 5% CO2
# 2nd. Day: Induction (Treatment with Compounds, 10 Concentrations):
# In order to achieve a final concentration of 30 μM as highest concentration 3.5 μl of 10 mM compound stock solution were added directly to 163 μl media. Then step e) of the dilution procedure described below, was followed.
row,pIC50,SMILES
1,4.80 to 6.00,"O=C(NS(=O)(=O)c1ccc(N2CCOCC2)nc1)c1ccc(Cl)cc1Cl [Example 1-1, 6-morpholin-4-yl-pyridine-3-sulfonic acid 2,4-dichloro-benzoylamide; sodium salt]"
2,5.27,"Cc1cc(Cl)ccc1C(=O)NS(=O)(=O)c1ccc(N2CCOCC2)nc1 [Example 1-2, 6-Morpholin-4-yl-pyridine-3-sulfonic acid 4-chloro-2-methyl-benzoylamide; sodium salt]"
3,4.80 to 6.00,"Cc1cc(Br)ccc1C(=O)NS(=O)(=O)c1ccc(N2CCOCC2)nc1 [Example 1-3, 6-Morpholin-4-yl-pyridine-3-sulfonic acid 4-bromo-2-methyl-benzoylamide; sodium salt]"
4,4.80 to 6.00,"Cc1ccc(C(=O)NS(=O)(=O)c2ccc(N3CCOCC3)nc2)c(Br)c1 [Example 1-4, 6-Morpholin-4-yl-pyridine-3-sulfonic acid 2-bromo-4-methyl-benzoylamide; sodium salt]"
5,5.07,"O=C(NS(=O)(=O)c1cnc(Cl)c(Br)c1)c1ccc(Br)cc1Cl [Example 1-7, 5-Bromo-6-chloro-pyridine-3-sulfonic acid 4-bromo-2-chloro-benzoylamide; sodium salt]"
6,4.80 to 6.00,"O=C(NS(=O)(=O)c1cnc(Cl)c(Br)c1)c1ccc(Cl)cc1Br [Example 1-8, 5-Bromo-6-chloro-pyridine-3-sulfonic acid 2-bromo-4-chloro-benzoylamide; sodium salt]"
7,4.80 to 6.00,"O=C(NS(=O)(=O)c1ccc(N2CCOCC2)nc1)c1ccc(F)cc1Cl [Example 1-10, 6-Morpholin-4-yl-pyridine-3-sulfonic acid 2-chloro-4-fluoro-benzoylamide; sodium salt]"
8,4.80 to 6.00,"O=C(NS(=O)(=O)c1cnc(Cl)c(Br)c1)c1ccc(Cl)cc1Cl [Example 1-13, 5-Bromo-6-chloro-pyridine-3-sulfonic acid 2,4-dichloro-benzoylamide; sodium salt]"
9,4.80 to 6.00,"O=C(NS(=O)(=O)c1ccc(Oc2ccccc2)nc1)c1ccc(C(F)(F)F)cc1F [Example 1-15, 6-Phenoxy-pyridine-3-sulfonic acid 2-fluoro-4-trifluoromethyl-benzoylamide; sodium salt]"
10,4.80 to 6.00,"O=C(NS(=O)(=O)c1cnc(Cl)c(Br)c1)c1ccc(C(F)(F)F)cc1C(F)(F)F [Example 1-18, 5-Bromo-6-chloro-pyridine-3-sulfonic acid 2,4-bis-trifluoromethyl-benzoylamide; sodium salt]"
11,4.80 to 6.00,"O=C(NS(=O)(=O)c1ccc(Oc2ccccc2)nc1)c1ccc(Cl)cc1F [Example 1-20, 6-Phenoxy-pyridine-3-sulfonic acid 4-chloro-2-fluoro-benzoylamide; sodium salt]"
12,4.80 to 6.00,"O=C(NS(=O)(=O)c1ccc(Oc2ccccc2)nc1)c1ccc(F)cc1C(F)(F)F [Example 1-21, 6-Phenoxy-pyridine-3-sulfonic acid 4-fluoro-2-trifluoromethyl-benzoylamide; sodium salt]"
13,5.50,"O=C(NS(=O)(=O)c1cccnc1)c1ccc(Cl)cc1Cl [Example 1-24, Pyridine-3-sulfonic acid 2,4-dichloro-benzoylamide; sodium salt]"
14,4.80 to 6.00,"O=C(NS(=O)(=O)c1ccc(Oc2ccccc2)nc1)c1ccc(Br)cc1Cl [Example 1-28, 6-Phenoxy-pyridine-3-sulfonic acid 4-bromo-2-chloro-benzoylamide; sodium salt]"
15,4.80 to 6.00,"O=C(NS(=O)(=O)c1ccc(N2CCOCC2)nc1)c1ccc(Cl)cc1Br [Example 1-29, 6-Morpholin-4-yl-pyridine-3-sulfonic acid 2-bromo-4-chloro-benzoylamide; sodium salt]"
16,4.80 to 6.00,"O=C(NS(=O)(=O)c1ccc(Oc2ccccc2)nc1)c1ccc(Cl)cc1Br [Example 1-33, 6-Phenoxy-pyridine-3-sulfonic acid 2-bromo-4-chloro-benzoylamide; sodium salt]"

row,pIC50,SMILES
1,4.80 to 6.00,"O=C(NS(=O)(=O)c1cccnc1)c1ccc(C(F)(F)F)cc1C(F)(F)F [Example 1-38, Pyridine-3-sulfonic acid 2,4-bis-trifluoromethyl-benzoylamide; sodium salt]"
2,4.80 to 6.00,"Cc1ccc(C(=O)NS(=O)(=O)c2ccc(Oc3ccccc3)nc2)c(Br)c1 [Example 1-40, 6-Phenoxy-pyridine-3-sulfonic acid 2-bromo-4-methyl-benzoylamide; sodium salt]"
3,4.80 to 6.00,"COc1cc(Cl)ccc1C(=O)NS(=O)(=O)c1ccc(N2CCC(OC)CC2)nc1 [Example 1-45, 4-Methoxy-3,4,5,6-tetrahydro-2H-[1,2′]bipyridinyl-5′-sulfonic acid 4-chloro-2-methoxy-benzoylamide; sodium salt]"
4,4.80 to 6.00,"COc1cc(Cl)ccc1C(=O)NS(=O)(=O)c1ccc(N2CCSCC2)nc1 [Example 1-47, 6-Thiomorpholin-4-yl-pyridine-3-sulfonic acid 4-chloro-2-methoxy-benzoylamide]"
5,4.80 to 6.00,"O=C(NS(=O)(=O)c1ccc(N2CCCCCC2)nc1)c1ccc(Cl)cc1C(F)(F)F [Example 1-49, 6-Azepan-1-yl-pyridine-3-sulfonic acid 4-chloro-2-trifluoromethyl-benzoylamide]"
6,4.80 to 6.00,"CC1CCCN(c2ccc(S(=O)(=O)NC(=O)c3ccc(Cl)cc3C(F)(F)F)cn2)C1 (centres unmarked) [Example 1-51, 3-Methyl-3,4,5,6-tetrahydro-2H-[1,2′]bipyridinyl-5′-sulfonic acid 4-chloro-2-trifluoromethyl-benzoylamide; ammonium salt]"
7,4.80 to 6.00,"CCCN(CCC)c1ccc(S(=O)(=O)NC(=O)c2ccc(Cl)cc2C(F)(F)F)cn1 [Example 1-54, 6-Dipropylamino-pyridine-3-sulfonic acid 4-chloro-2-trifluoromethyl-benzoylamide]"
8,4.80 to 6.00,"O=C(NS(=O)(=O)c1ccc(N2CCSCC2)nc1)c1ccc(Cl)cc1C(F)(F)F [Example 1-56, 6-Thiomorpholin-4-yl-pyridine-3-sulfonic acid 4-chloro-2-trifluoromethyl-benzoylamide; ammonium salt]"
9,4.80 to 6.00,"CCCCN(CC)c1ccc(S(=O)(=O)NC(=O)c2ccc(Cl)cc2C(F)(F)F)cn1 [Example 1-59, 6-(Butyl-ethyl-amino)-pyridine-3-sulfonic acid 4-chloro-2-trifluoromethyl-benzoylamide; ammonium salt]"
10,4.80 to 6.00,"CCCN(C)c1ccc(S(=O)(=O)NC(=O)c2ccc(F)cc2Cl)cn1 [Example 1-63, 6-(Methyl-propyl-amino)-pyridine-3-sulfonic acid 2-chloro-4-fluoro-benzoylamide]"
11,4.80 to 6.00,"O=C(NS(=O)(=O)c1ccc(N2CCSCC2)nc1)c1ccc(F)cc1Cl [Example 1-68, 6-Thiomorpholin-4-yl-pyridine-3-sulfonic acid 2-chloro-4-fluoro-benzoylamide]"
12,4.80 to 6.00,"O=C(NS(=O)(=O)c1ccc(N2CCCCCC2)nc1)c1ccc(Cl)cc1Cl [Example 1-69, 6-Azepan-1-yl-pyridine-3-sulfonic acid 2,4-dichloro-benzoylamide]"
13,4.80 to 6.00,"O=C(NS(=O)(=O)c1ccc(N2CCSCC2)nc1)c1ccc(Cl)cc1Cl [Example 1-71, 6-Thiomorpholin-4-yl-pyridine-3-sulfonic acid 2,4-dichloro-benzoylamide]"
14,4.80 to 6.00,"C[C@@H]1CN(c2ccc(S(=O)(=O)NC(=O)c3ccc(Cl)cc3C(F)(F)F)cn2)C[C@H](C)O1 [Example 1-72, 6-((2R,6S)-2,6-Dimethyl-morpholin-4-yl)-pyridine-3-sulfonic acid 4-chloro-2-trifluoromethyl-benzoylamide]"
15,4.80 to 6.00,"O=C(NS(=O)(=O)c1ccc(N2CCCCCC2)nc1)c1ccc(F)cc1C(F)(F)F [Example 1-78, 6-Azepan-1-yl-pyridine-3-sulfonic acid 4-fluoro-2-trifluoromethyl-benzoylamide]"
16,4.80 to 6.00,"O=C(NS(=O)(=O)c1ccc(N2CCSCC2)nc1)c1ccc(F)cc1C(F)(F)F [Example 1-80, 6-Thiomorpholin-4-yl-pyridine-3-sulfonic acid 4-fluoro-2-trifluoromethyl-benzoylamide]"

# Source: patent US7625896B2, “Pyridylsulfonamide derivatives” (Hoffman-La Roche Inc., priority 2005, dated 2009)
